“Also recorded” adds a separate entry of the source. Where two headings read alike, the source gives them in different places.
Legend:
[1] = system: C57BL/6 (CSD) mice; test: Chronic social defeat and fear learning and memory; assay type: in vivo, mouse; details: 1 mg/kg oral
[2] = Pharmacokinetic studies in mice; details: male, C57BL/6, mouse, in vivo
[3] = in vivo
[4] = target: T1, A1 (h) (Homo sapiens, UniProt P30542); assay type: binding
T1 sequence (P30542 1-326): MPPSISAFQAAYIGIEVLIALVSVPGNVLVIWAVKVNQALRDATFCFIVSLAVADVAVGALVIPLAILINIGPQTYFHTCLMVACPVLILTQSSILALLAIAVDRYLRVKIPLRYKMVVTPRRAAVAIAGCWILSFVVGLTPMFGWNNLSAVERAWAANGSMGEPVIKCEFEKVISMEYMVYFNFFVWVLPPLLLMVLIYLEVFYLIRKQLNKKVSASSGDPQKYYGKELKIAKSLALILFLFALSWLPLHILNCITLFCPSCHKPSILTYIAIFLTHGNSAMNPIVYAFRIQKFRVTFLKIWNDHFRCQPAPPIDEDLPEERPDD

[5] = target: rTRPC5 (Rattus norvegicus, UniProt Q8VD38); test: Whole-cell manual patch clamp; assay type: cell-based
Sequence of rTRPC5 (Q8VD38 1-974): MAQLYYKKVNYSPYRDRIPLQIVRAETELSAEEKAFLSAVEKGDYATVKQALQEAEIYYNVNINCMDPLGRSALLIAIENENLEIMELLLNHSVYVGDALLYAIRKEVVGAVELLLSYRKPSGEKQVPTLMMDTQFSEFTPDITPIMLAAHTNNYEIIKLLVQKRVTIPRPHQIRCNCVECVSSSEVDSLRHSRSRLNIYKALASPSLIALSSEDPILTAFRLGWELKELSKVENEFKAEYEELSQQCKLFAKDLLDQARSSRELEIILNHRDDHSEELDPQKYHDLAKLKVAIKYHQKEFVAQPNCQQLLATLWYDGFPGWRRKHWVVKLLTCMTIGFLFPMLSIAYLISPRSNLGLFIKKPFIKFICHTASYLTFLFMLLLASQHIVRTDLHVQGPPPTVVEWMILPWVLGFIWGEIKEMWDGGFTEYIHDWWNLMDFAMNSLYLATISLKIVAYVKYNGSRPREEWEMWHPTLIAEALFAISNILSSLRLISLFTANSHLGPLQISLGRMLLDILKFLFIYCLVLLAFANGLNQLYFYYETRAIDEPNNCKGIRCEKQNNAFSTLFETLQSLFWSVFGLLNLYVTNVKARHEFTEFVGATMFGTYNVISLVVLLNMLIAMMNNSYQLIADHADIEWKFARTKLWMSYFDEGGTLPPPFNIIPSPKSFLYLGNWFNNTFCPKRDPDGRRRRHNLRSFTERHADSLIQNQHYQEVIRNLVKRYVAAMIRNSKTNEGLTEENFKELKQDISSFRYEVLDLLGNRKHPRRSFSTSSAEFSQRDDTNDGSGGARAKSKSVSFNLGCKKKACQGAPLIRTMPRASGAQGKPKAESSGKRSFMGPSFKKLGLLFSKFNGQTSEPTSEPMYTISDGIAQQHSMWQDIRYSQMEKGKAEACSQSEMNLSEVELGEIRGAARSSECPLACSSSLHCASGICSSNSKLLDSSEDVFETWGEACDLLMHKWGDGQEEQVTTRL

[6] = target: 5-HT1D (Rattus norvegicus, UniProt P28565); test: biochemical
Sequence of 5-HT1D (P28565 whole entry): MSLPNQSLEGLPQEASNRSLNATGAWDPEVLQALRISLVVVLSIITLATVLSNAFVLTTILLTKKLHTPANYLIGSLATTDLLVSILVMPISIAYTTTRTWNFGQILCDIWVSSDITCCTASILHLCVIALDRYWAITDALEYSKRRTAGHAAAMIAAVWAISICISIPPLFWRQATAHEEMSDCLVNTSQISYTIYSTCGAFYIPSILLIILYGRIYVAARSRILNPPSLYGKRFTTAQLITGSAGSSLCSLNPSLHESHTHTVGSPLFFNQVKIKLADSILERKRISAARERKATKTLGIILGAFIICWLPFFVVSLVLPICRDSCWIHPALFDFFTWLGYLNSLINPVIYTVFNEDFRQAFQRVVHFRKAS

[7] = target: T2, 5-HT2A (h) (Homo sapiens, UniProt P28223); assay type: binding
T2 construct: host or cells: HEK-293 cells
T2 sequence (P28223 whole entry): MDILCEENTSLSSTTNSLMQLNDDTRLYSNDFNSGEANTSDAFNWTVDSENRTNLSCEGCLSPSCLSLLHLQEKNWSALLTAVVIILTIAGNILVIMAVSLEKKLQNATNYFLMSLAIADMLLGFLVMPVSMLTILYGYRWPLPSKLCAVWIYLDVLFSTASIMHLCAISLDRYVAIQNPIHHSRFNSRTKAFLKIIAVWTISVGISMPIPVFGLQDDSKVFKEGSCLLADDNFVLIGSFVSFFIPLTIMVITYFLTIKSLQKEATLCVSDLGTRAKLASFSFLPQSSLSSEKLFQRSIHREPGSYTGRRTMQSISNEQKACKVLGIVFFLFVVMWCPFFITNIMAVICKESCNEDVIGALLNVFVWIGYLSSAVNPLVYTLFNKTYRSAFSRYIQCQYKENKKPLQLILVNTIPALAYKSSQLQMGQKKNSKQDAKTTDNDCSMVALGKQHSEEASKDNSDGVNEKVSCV

[8] = target: T3, NK1 (h) (Homo sapiens, UniProt P25103); assay type: binding; details: 1.0E-06 M
T3 construct: (endogenous); host or cells: U-373MG cells
T3 sequence (P25103 whole entry): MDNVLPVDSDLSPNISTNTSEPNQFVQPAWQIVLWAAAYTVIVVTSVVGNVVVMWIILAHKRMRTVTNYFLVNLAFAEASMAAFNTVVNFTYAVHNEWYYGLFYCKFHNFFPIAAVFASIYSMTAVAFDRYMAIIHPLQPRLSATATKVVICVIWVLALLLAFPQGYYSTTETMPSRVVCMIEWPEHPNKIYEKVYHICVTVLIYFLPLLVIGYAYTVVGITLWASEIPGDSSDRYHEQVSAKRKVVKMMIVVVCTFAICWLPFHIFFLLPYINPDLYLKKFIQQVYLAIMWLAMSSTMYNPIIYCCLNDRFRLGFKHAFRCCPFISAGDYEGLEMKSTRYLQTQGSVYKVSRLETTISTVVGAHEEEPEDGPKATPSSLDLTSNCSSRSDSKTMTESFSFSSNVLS

[9] = system: rolipram; assay type: binding, mouse; details: 1.0E-06 M
[10] = target: Lyn A kinase (h) (Homo sapiens, UniProt P07948); test: biochemical; details: 1.0E-06 M
Sequence of Lyn A kinase (h) (P07948 whole entry): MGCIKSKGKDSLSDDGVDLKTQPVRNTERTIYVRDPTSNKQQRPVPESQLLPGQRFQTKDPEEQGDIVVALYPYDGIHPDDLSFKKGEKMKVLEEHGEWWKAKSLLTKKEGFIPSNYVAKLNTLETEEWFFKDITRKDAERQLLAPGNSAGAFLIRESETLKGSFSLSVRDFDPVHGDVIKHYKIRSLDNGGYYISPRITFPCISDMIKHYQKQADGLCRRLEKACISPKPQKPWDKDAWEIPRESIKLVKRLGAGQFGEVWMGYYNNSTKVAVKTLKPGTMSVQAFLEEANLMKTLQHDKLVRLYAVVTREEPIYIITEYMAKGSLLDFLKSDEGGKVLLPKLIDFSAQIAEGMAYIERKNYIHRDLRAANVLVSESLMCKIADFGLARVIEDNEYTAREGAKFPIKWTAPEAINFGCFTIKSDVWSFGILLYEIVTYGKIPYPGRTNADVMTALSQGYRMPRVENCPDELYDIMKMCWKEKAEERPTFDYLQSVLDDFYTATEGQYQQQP

[11] = target: T4, COX1 (h) (Homo sapiens, UniProt P23219); test: biochemical; details: 1.0E-06 M
T4 construct: Cerep (contract assay); host or cells: Sf9 cells
T4 sequence (P23219 24-599): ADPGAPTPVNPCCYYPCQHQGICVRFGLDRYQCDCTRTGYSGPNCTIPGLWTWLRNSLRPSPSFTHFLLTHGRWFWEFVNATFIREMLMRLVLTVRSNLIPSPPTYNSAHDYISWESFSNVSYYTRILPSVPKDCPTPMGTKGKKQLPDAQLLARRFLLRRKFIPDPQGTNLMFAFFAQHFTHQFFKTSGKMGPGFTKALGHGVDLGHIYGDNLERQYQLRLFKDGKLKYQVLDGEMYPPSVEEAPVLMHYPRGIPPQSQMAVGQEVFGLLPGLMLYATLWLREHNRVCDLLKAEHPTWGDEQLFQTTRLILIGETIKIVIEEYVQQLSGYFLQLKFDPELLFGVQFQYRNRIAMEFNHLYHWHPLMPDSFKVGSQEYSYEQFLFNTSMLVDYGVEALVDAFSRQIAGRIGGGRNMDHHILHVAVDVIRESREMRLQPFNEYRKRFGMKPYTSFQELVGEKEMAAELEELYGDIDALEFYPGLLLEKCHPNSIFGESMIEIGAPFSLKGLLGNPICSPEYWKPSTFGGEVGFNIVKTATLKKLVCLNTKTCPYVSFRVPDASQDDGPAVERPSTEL

[12] = target: T5, A3 (h) (Homo sapiens, UniProt P0DMS8); assay type: binding; details: 1.0E-06 M
T5 construct: host or cells: HEK-293 cells
T5 sequence (P0DMS8 1-318): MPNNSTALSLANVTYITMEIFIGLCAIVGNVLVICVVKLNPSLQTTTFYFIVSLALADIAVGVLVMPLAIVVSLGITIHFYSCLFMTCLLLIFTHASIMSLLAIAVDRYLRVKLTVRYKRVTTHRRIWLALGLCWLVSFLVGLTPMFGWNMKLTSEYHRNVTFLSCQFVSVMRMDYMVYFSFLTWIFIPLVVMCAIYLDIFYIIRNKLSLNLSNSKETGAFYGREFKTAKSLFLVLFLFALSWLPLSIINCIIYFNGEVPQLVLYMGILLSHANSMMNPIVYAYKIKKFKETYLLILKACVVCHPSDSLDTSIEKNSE

[13] = target: T6, mTRPC5 (Mus musculus, UniProt Q9QX29); test: Whole-cell manual patch clamp; assay type: cell-based; details: La3+ (80 μM)
T6 construct: The cDNAs for various full-length ion channels were subcloned into pcDNA5/TO; expressed in transfected cells

[14] = target: T7, α2A (h) (Homo sapiens, UniProt P08913); assay type: binding; details: 1.0E-06 M
T7 construct: host or cells: CHO cells
T7 sequence (P08913 1-465): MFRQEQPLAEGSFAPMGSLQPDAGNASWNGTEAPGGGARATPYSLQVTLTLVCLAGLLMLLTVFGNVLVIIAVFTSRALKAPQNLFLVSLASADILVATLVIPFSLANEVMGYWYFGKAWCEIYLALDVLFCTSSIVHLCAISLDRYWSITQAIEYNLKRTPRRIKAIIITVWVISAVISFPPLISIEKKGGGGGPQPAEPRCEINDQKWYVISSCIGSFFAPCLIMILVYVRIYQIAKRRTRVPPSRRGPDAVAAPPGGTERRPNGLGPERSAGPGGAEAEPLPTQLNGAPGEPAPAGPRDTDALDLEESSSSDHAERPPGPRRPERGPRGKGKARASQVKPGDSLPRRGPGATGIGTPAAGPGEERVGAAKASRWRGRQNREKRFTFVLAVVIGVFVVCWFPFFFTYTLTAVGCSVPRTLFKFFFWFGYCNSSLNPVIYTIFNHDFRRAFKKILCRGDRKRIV

[15] = target: TRPM8 (Homo sapiens, UniProt Q7Z2W7); test: cell-based
Sequence of TRPM8 (Q7Z2W7 whole entry, species assumed): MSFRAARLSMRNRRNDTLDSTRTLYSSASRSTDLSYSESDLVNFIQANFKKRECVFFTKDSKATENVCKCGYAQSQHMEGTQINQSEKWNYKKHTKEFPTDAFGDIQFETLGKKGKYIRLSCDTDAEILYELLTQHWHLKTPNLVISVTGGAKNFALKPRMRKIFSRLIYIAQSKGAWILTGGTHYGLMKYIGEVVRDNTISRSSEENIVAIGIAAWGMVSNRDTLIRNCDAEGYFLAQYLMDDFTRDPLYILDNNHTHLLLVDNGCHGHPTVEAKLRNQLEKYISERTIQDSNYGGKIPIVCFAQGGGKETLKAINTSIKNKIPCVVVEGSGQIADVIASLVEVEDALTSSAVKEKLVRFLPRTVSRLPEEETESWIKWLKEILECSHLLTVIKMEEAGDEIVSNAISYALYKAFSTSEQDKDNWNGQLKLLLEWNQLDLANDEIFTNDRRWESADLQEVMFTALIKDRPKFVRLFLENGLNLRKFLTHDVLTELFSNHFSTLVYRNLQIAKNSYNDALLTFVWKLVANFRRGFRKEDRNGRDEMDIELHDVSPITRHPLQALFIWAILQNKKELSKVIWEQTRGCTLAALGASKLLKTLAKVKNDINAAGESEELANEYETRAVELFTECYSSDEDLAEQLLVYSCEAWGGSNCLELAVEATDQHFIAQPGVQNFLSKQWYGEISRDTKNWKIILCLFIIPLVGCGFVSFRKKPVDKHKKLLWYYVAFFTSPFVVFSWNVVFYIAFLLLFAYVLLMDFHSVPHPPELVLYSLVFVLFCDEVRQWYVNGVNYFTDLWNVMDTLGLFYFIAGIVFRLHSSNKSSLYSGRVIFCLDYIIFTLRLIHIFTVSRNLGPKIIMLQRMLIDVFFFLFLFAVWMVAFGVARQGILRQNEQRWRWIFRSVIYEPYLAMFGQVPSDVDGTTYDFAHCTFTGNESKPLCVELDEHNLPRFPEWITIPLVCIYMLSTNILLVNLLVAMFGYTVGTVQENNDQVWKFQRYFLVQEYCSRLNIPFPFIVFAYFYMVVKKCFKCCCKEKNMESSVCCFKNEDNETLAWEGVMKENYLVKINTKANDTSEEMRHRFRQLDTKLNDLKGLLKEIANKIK

[16] = Swiss Webster, mouse, iv, 1 mg/kg
[17] = Swiss Webster, mouse, po, 10 mg/kg
[18] = male, C57BL/6, mouse, iv, 1 mg/kg
[19] = male, C57BL/6, mouse, po, 10 mg/kg

SMILES: Cn1c(=O)n(CCCO)c(=O)c2c1nc(Oc1cccc(Cl)c1)n2Cc1ccc(Cl)cc1 [HC-070]
- CS fear memory in CSD mice [1]: tended to reduce
- context fear memory in CSD mice [1]: significantly reduced
- freezing in inter-trial intervals between CS presentations, CSD mice [1]: ameliorated to the level of control mice; also recorded: reduced fear memory in CSD mice
- half-life ([2]; iv, 1 mg/kg): 210 min
- half-life ([2]; po, 10 mg/kg): 198 min
- Vd [3, 16]: 2.2 L/kg
- clearance [3, 16]: 11 mL/min/kg
- half-life [3, 16]: 216 min
- Tmax [3, 17]: 1 h
- half-life [3, 17]: 162 min
- Vd [3, 18]: 1.5 L/kg
- clearance [3, 18]: 13 mL/min/kg
- concentration at 2 h ([3]; male, C57BL/6, mouse, iv, 1 mg/kg, CBR (concentration in brain)): 299 ± 11 nM
- concentration at 2 h ([3]; male, C57BL/6, mouse, iv, 1 mg/kg, CPL (concentration in plasma)): 339 ± 66 nM
- Cmax [3, 19]: 937 nM
- Tmax [3, 19]: 1 h
- concentration at 2 h ([3]; male, C57BL/6, mouse, po, 10 mg/kg, CBR (concentration in brain)): 525 ± 72 nM
- concentration at 2 h ([3]; male, C57BL/6, mouse, po, 10 mg/kg, CPL (concentration in plasma)): 583 ± 108 nM

SMILES: Cn1c(=O)n(CCCO)c(=O)c2c1nc(Oc1cccc(OC(F)(F)F)c1)n2Cc1ccc(Cl)cc1 [HC-608]
- inhibition at 1 µM ([4]; 1.0E-06 M, read-out: % Inhibition 1st): 22.5%
- inhibition at 1 µM ([4]; 1.0E-06 M, read-out: % Inhibition Mean): 17.4%
- inhibition at 1 µM ([4]; read-out: % Inhibition 2nd): 12.3%
- IC50 [5]: ~0.41 nM
- inhibition at 1 µM ([6]; read-out: % Inhibition 1st): -4.2%
- inhibition at 1 µM ([6]; read-out: % Inhibition 2nd): -8.8%
- inhibition at 1 µM ([6]; read-out: % Inhibition Mean): -6.5%
- inhibition at 1 µM ([7]; read-out: % Inhibition 1st): -4.3%
- inhibition at 1 µM ([7]; read-out: % Inhibition 2nd): 6.9%
- inhibition at 1 µM ([7]; read-out: % Inhibition Mean): 1.3%
- inhibition at 1 µM ([8]; read-out: % Inhibition 1st): -2.6%
- inhibition at 1 µM ([8]; read-out: % Inhibition 2nd): -13%
- inhibition at 1 µM ([8]; read-out: % Inhibition Mean): -7.8%
- % Inhibition 1st [9]: -4.6%
- % Inhibition 2nd [9]: 0.5%
- % Inhibition Mean [9]: -2.1%
- inhibition at 1 µM ([10]; read-out: % Inhibition 1st): 13.7%
- inhibition at 1 µM ([10]; read-out: % Inhibition 2nd): 5.5%
- inhibition at 1 µM ([10]; read-out: % Inhibition Mean): 9.6%
- inhibition at 1 µM ([11]; read-out: % Inhibition 1st): -1.5%
- inhibition at 1 µM ([11]; read-out: % Inhibition 2nd): 27.2%
- inhibition at 1 µM ([11]; read-out: % Inhibition Mean): 12.9%
- inhibition at 1 µM ([12]; read-out: % Inhibition 1st): 28.3%
- inhibition at 1 µM ([12]; read-out: % Inhibition 2nd): 36.4%
- inhibition at 1 µM ([12]; read-out: % Inhibition Mean): 32.3%
- IC50 [13]: ~0.62 nM
- inhibition at 1 µM ([14]; read-out: % Inhibition 1st): -14.9%
- inhibition at 1 µM ([14]; read-out: % Inhibition 2nd): -3.7%
- inhibition at 1 µM ([14]; read-out: % Inhibition Mean): -9.3%
- IC50 [15]: > 1640 nM

Source: publication PMC5791972 (PLoS ONE, 2018)
